Test results from patent publication US20210163552A1, “PEPTIDE FOR INDUCING REGENERATION OF TISSUE, AND USE THEREOF” (SHIONOGI & CO., LTD., priority 2017, published 2021).
Where no end group is shown, it is not given here.

Assays:
[1] = tested on: murine bone marrow-derived stromal cell line ST2; assay: Measurements of cell-migration activity (Example 2); type: cell-based; set-up: key: five levels of scores (−, ±, +, ++, +++); five levels of scores (−, ±, +, ++, +++); five levels of scores (−, ±, +, ++, +++); five levels of scores (−, ±, +, ++, +++); five levels of scores (−, ±, +, ++, +++); conditions: ST2 cells, peptide at 10 μM, cultured overnight, score from photographed images
Protocol: Cells of murine bone marrow-derived stromal cell line ST2 (RCB0224, RIKEN BioResource Research Center) were removed from a dish using TrypLE Express (Thermo Fisher Scientific), and collected by centrifugation at 25° C. and 1,500 rpm for 5 minutes. The cell pellets were prepared into a concentration of 7×10^5 cells/mL with RPMI 1640/10% FBS/1% PenStrep (Gibco), and seeded at 70 μL/insert well on a 24-well plate set with a culture insert (Nippon Genetics Co., Ltd.). After 24 hours, the culture insert was taken out, and the cells were washed once with RPMI 1640. Each of the peptide samples (a peptide of position 2 to position 44 of human HMGB1 (2-44), and the five kinds of modified peptides Peptide-1 to -5 prepared in Example 1), each prepared at 10 μM with an assay medium (RPMI 1640/0.1% FBS) was added in an amount of 550 μL, and the cells were further cultured overnight. As a negative control (NC), only the assay medium was added. After the culture, the cells were fixed, stained with DiffQuik, and photographed. The degree of cell migration of each group from the photographed images was evaluated with five levels of scores (−, ±, +, ++, +++). In addition, each of the peptide samples was subjected to three test runs under the same conditions.

[2] = Stability of peptides in plasma (Example 6); type: in vitro ADME; conditions: rat plasma on ice, assay concentration 5 μg/mL; for stability in rat plasma compared to 2-44 / stability in rat plasma, Peptide-3 and Peptide-6 compared with each other: 30 and 60 minutes (FIG. 3)
Protocol: A 5 mL tube previously charged with 60 μL of a 10% EDTA-2K was charged with 3 mL of whole blood collected from Crl: CD (SD) rats, and the contents were allowed to stand at room temperature for 30 minutes, and then centrifuged at 4° C. and at 3,000 rpm (1600×g) for 10 minutes. The supernatant was collected to be used as a blank plasma. The plasma obtained was stored on ice and only used on the day of the stability test.
Each of the peptide at position 2 to position 44 of human HMGB1 (2-44), the modified peptide prepared in Example 1 (Peptide-3), and the modified peptide prepared in Example 4 (Peptide-6) was prepared into a solution at 375 μg/mL with distilled water from a stock solution in which each peptide was dissolved in a 0.1% aqueous TFA solution at 1 mg/mL. Eight microliters of the solution was added to 592 μL of the blank plasma to prepare a sample for the stability test (assay concentration: 5 μg/mL). The sample for stability test was allowed to stand on ice, and 50 μL was collected immediately after the addition, and 30 and 60 minutes after the addition. To 50 μL of the collected sample were added 250 μL of 270 mmol/L citric acid solution/130 mmol/L EDTA-2K aqueous solution (4:1, v/v), and 50 μL of a 0.1% aqueous TFA solution, and mixed. To the mixture was added 350 μL of methanol and mixed, and further 100 μL of acetonitrile was added thereto and mixed, and the mixture was once frozen with dry ice. After 5 to 60 minutes, the frozen sample was thawed at room temperature, and the supernatant obtained by centrifugation at 4° C. and at 14,000×g for 3 minutes was collected in an amount of 400 μL, dried and solidified with a centrifugal concentrator (Spin Dryer Light VC-36R, manufactured by TAITEC CORPORATION), and dissolved in 200 μL of a 1% TFA/2% ACN Buffer, and filtrated with a filter (0.22 μm) to obtain samples for the measurement.
The samples for the measurement were introduced into high-performance liquid chromatograph-single quadrupolar mass spectrometer to detect the monitor ions peculiar to each of the peptides. From separately prepared samples of which concentrations were known, a calibration curve was drawn in a concentration range of from 0.1 to 10 μg/mL, and an inverse regression was obtained from peak areas of chromatograms obtained by measurements of each sample to obtain a peptide concentration in the samples. For the peptide concentration at each time point, a remaining rate (%) which was calculated by defining one immediately after the addition as 100 was plotted against the time after the addition (FIG. 3).

## MGKGDPKKPRGKMSSYAFFVQTCREEHKKKHPDASVNFSEFSKA (MGKGDPKKPRGKMSSYAFFVQTCREEHKKKHPDASVNFSEFSKA) [Peptide-4]
[1]
  degree of cell migration, 1st Run: ++
  degree of cell migration, 2nd Run: +
  degree of cell migration, 3rd Run: +++

## MGKGDPKKPRGKMSSYAFFVQTCREEHKKKHPDASVNFSEFSPP [Peptide-3, MGKGDPKKPRGKMSSYAFFVQTCREEHKKKHPDASVNFSEFSPP]
[2]
  stability in rat plasma compared to 2-44: stable as compared to 2-44
  stability in rat plasma, Peptide-3 and Peptide-6 compared with each other: of the same level

## GKGDPKKPRGKMSSYAFFVQTCREEHKKKHPDASVNFSEFSKK [Peptide 2-44, GKGDPKKPR GKMSSYAFFVQTCREEHKKKHPDASVNFSEFSKK, reference compound]
[2]; 30 minutes after the addition
  peptide concentration in the stability test sample (quantifiable lower limit): ≤ 0.5 µg/mL

## GKGDPKKPRGKMSSYAFFVQTCREEHKKKHPDASVNFSEFSPP [Peptide-6, GKGDPKKPR GKMSSYAFFVQTCREEHKKKHPDASVNFSEFSPP]
[2]
  stability in rat plasma compared to 2-44: stable as compared to 2-44
  stability in rat plasma, Peptide-3 and Peptide-6 compared with each other: of the same level

## MGKGDPKKPRGKMSSYAFFVQTCREEHKKKHPDASVNFSEFSKP (MGKGDPKKPRGKMSSYAFFVQTCREEHKKKHPDASVNFSEFSKP) [Peptide-1]
[1]
  degree of cell migration, 1st Run: +++
  degree of cell migration, 2nd Run: +
  degree of cell migration, 3rd Run: +++

## MGKGDPKKPRGKMSSYAFFVQTCREEHKKKHPDASVNFSEFSPK (MGKGDPKKPRGKMSSYAFFVQTCREEHKKKHPDASVNFSEFSPK) [Peptide-2]
[1]
  degree of cell migration, 1st Run: +++
  degree of cell migration, 2nd Run: ++
  degree of cell migration, 3rd Run: +++

## MGKGDPKKPRGKMSSYAFFVQTCREEHKKKHPDASVNFSEFSKE (MGKGDPKKPRGKMSSYAFFVQTCREEHKKKHPDASVNFSEFSKE) [Peptide-5]
[1]
  degree of cell migration, 1st Run: ++
  degree of cell migration, 2nd Run: ++
  degree of cell migration, 3rd Run: ++
